Data reported in patent publication EP0286578A1, “4,15-Disubstituted 4-androsten-3,17-diones, and process for their preparation” (SCHERING AKTIENGESELLSCHAFT, priority 1987, dated 1988).

Biological target: T1, Aromatase (Rattus norvegicus, UniProt P22443)
T1 construct: Invantile weibliche Ratten reagieren auf PMSG (Pregnant Mare's Serum Gonadotropin)-Behandlung mit einheitlich erhöhter Steroidsynthese; from tissue; host or cells: living infantile female rats (whole animal; serum estradiol read-out)
T1 sequence (P22443 1-508): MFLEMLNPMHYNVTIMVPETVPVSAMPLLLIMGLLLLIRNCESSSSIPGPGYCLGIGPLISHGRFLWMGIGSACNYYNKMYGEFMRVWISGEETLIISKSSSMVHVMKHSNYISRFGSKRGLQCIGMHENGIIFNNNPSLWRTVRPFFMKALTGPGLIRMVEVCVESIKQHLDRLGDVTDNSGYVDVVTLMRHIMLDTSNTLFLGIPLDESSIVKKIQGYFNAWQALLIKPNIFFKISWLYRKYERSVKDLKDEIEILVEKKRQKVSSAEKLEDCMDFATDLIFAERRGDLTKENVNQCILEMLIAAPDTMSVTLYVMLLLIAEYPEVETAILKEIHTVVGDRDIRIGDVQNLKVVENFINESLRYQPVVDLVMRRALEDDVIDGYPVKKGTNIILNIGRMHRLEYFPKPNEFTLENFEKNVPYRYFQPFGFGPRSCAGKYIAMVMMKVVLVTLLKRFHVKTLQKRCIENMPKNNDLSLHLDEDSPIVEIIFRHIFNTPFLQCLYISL
Assay: PMSG test in infantile female rats (serum estradiol by radioimmunoassay)
Assay type: in vivo, Ratte
Settings: for Konzentration im Serum Östradiol: infantile Ratten, PMSG-stimulated, 2 x 10 mg/Tier p.o., serum 24 h after last PMSG, mean ± SD, 10 animals per group

## C[C@]12CCC(=O)C(O)=C1CC[C@@H]1[C@@H]2CC[C@]2(C)C(=O)CC[C@@H]12 [A, 4-Hydroxy-4-androsten-3,17-dion]
PMSG test, oral application, dose range tested 2 x 10 mg, result in words
  Wirksamkeit: keine Wirksamkeit
  Konzentration im Serum Östradiol: 3,45 ± 0,18 nMol/l

## CC[C@@H]1CC(=O)[C@@]2(C)CC[C@H]3[C@@H](CCC4=C(O)C(=O)CC[C@@]43C)[C@H]12 [B, 15β-Ethyl-4-hydroxy-4-androsten-3,17-dion]
  Konzentration im Serum Östradiol: 2,83 ± 0,29 nMol/l

## CC[C@@H]1CC(=O)[C@@]2(C)CC[C@H]3[C@@H](CCC4=C(OC(C)=O)C(=O)CC[C@@]43C)[C@H]12 [C, 4-Acetoxy-15β-ethyl-4-androsten-3,17-dion]
  Konzentration im Serum Östradiol: 2,34 ± 0,46 nMol/l
